No end group written: not given here.

The subject of experiment [1] is PBL. Kind of experiment: Proliferation of PBL, direct presentation of peptide without APC. In kind it is cell-based, human.
Experimental: In all three methods, plates were cultured for 3-5 days under visual control and then 0.5 □Cu/well of 3[H] (Amersham) was added for additional culture of to 18 h at 37° C. […] DC indirect presentation: In the first method, 100 µl of 2×10^6 thawed PBL were placed in U-shape Bottom 96 well plate (Nunc) with RPMI medium supplemented with 5% H AB serum, L-Glutamine, Sodium Pyruvate, MEM-EAGLE non-essential amino-acids, HEPES and Gentamycin. At the next stage 100 µl of 25×10^4 peptide-pulsed DC were added to each three wells of PBL and underwent proliferation analysis as described above. • 2. PBL direct presentation: In the 2nd method, 100 µl of 2×10^6 PBL were placed in Flat Bottom 96 well plates (Corning) and stimulated with different concentrations (0.05 ug/ml-2 ug/ml) of peptides. In the next step the cells underwent proliferation analysis as described above. • 3. PBMC direct presentation: In third method PNMC were used under similar conditions as described for the second method.
Direct presentation of peptides to PBL without any APC
Experiment [2] has as its system PBLs (CD4+, CD8+, CD45RO+ T cells). Kind of experiment: FACS analysis of T cell phenotype during repeated stimulation with ImMucin (FIG. 2). The class given is cell-based, human. From the text:
Thawed PBLs underwent 1st stimulation with ImMucin pulsed Autologues DC at a ratio of 20:1 and cultured for 7 days in dedicated T cell Medium. T cell medium contained RPMI medium supplemented with 10% FCS, L-Glutamine, Sodium Pyruvate, MEM-EAGLE non-essential amino-acids, HEPES and Gentamycin Sulphate (Bet-Haemek Industries, IL) as well as with 50 IU/ml of recombinant IL-7 (Cytolab IL). For the second stimulation, PBL were transferred to adherent autologues ImMucin-pulsed PBMC and cultured for additional 5 days in T cell Medium. At the end of the 5 days, medium was partial replaced with fresh medium containing 1 ug/ml of ImMucin and 50 IU/ml IL-2 for a third stimulation of 48 h at 37° C. Following the last stimulation ImMucin T cell line was checked for immune activation properties.
For FACS analysis, PBLs were suspended at a final concentration of 20×10^6 and 50 µl were transfer into FACS tube (Falcon) in Blocker solution (PBS with 3% FCS and 0.1% Sodium Azide). 10 µl of fluorochrome-conjugate anti-CD4, anti-CD8, and anti-CD45RO (eBioscience) were added for 30 min on ice at 0° C. in the Dark. After the incubation cell were washed with 2 ml of the blocker solution and re suspended in 0.5 ml of Phosphate buffer saline (PBS). Samples were analyzed in a FACS-sort machine (BD) for positive florescence.
The ability of ImMucin to propagate a subpopulation of CD4^+ and CD8^+ T cells was further analyzed, and in particular the ability of ImMucin to transform naive CD4^+ and CD8^+ T cells into memory cells. This property was evaluated in a FACS analysis measuring the CD45RO^+ marker for memory T cells on CD4^+ and CD8^+ subpopulations (FIG. 2).
For orientation: In flow cytometry, cells or beads pass a laser one at a time.

For experiment [3], the system named is HT-29. The experiment in a line: In vitro cytotoxic assay (CTL) of ImMucin-stimulated HLA-A2.1 positive T-cell clone. The conditions noted are these: HT-29 Human Colon Carcinoma, MUC1 −, ratio 1:50. In kind it is cell-based. As for the experimental part:
(§1) Effector cells were ImMucin specific enriched T-Cell clone. Viable lymphocytes (effector cells), were centrifugation, resuspended in RPMI-HEPES medium, and admixed at different ratios with 5×10^3 35S methionine-labeled, tumor cells. CTL assays were performed in U-shaped microtiter wells, at 37° C., 5% CO2 for 5 hours. Cultures were terminated by centrifugation at 1000 rpm for 10 min at […]. A total of 100 µl of the supernatants was mixed with scintillation fluid and measured in a □□ counter (Becton Dickinson Canberra Australia). Percentage of specific lysis was calculated as follows: % lysis=(cpm in experimental well−cpm spontaneous release)/(cpm maximal release−cpm spontaneous release)×100. Spontaneous release was determined by incubation of 100 µl-labeled target cells with 100 µl of medium. Maximal release was determined by lysis of target cells in 100 µl 10% TrytonX-100.
(§2) In order to further evaluate the class II/class I cross presentation as well as the specificity and function of the T-cell clones, their class I restricted lysis potential was analyzed. For this assay the clones were screened for Class I HLA-A2.1 expression and their potential to lyse MUC1 and HLA-A2.1 positive and negative cell-lines was evaluated. […] The results summarized in Table 10 show a MUC1 as well as HLA-A2.1-restricted lysis. A breast tumor cell such as MDA-MB-231 which expresses both MUC1 and HLA-A2.1 was lysed effectively (23%), while another breast tumor cell line MDA-MB-468 which expresses only MUC1 but not the HLA-2.1 was not lysed al all. Other control cell-lines didn't manifest any lysis (see table 10).

Experiment [4] deals with K562. The description is as above. The class given is cell-based. The conditions noted are these: K562 Human Myalo Leukeima, MUC1 +, ratio 1:50. As for the experimental part: as §1, §2
The subject of experiment [5] is MDA-MB-231. The experiment is described as above. The class given is cell-based. The conditions noted are these: MDA-MB-231 Human Brest Carcinoma, MUC1 +++, ratio 1:50. As for the experimental part: as §1, §2
The test system of experiment [6] is MDA-MB-486. Described as above. The conditions noted are these: MDA-MB-486 Human Brest Carcinoma, MUC1 ++, ratio 1:50. The class given is cell-based. The protocol: as §1, §2
The subject of experiment [7] is Molt-4. The experiment is described as above. The settings on record: Molt-4 Human T cell Leukemia, MUC1 −, ratio 1:50. In kind it is cell-based. As for the experimental part: as §1, §2
The subject of experiment [8] is blood samples derived from naive donors. The experiment in a line: Summary: ImMucin specific activation in blood samples of naive donors. In kind it is cell-based, human. The settings on record: out of 14 different blood samples from naive donors. From the text:
In summary, out of 14 different blood samples derived from naive donors, in 12 ImMucin specific activation could be observed. It is therefore clear that ImMucin is able to induce antigen specific CD4^+ as well as CD8^+ T cell activation which can lead to effective anti-tumor vaccine properties including lysis, cytokine release and memory in the majority of the population.

The test system of experiment [9] is lymphocytes from naive donors. Kind of experiment: Proliferation assay, kinetics of lymphocyte activation as summarised in text (presentation mode not stated). In kind it is cell-based, human. The settings on record: summary of five experiments. The protocol: Proliferation analysis was conducted in three different methods. In all three methods, plates were cultured for 3-5 days under visual control and then 0.5 […]Cu/well of 3[H] (Amersham) was added for additional culture of to 18 h at 37° C. In the last step, plates were harvested and the radioactive counts were measured in a □ counter. • 1. DC indirect presentation: In the first method, 100 µl of 2×10^6 thawed PBL were placed in U-shape Bottom 96 well plate (Nunc) with RPMI medium supplemented with 5% H AB serum, L-Glutamine, Sodium Pyruvate, MEM-EAGLE non-essential amino-acids, HEPES and Gentamycin. At the next stage 100 µl of 25×10^4 peptide-pulsed DC were added to each three wells of PBL and underwent proliferation analysis as described above. • 2. PBL direct presentation: In the 2nd method, 100 µl of 2×10^6 PBL were placed in Flat Bottom 96 well plates (Corning) and stimulated with different concentrations (0.05 ug/ml-2 ug/ml) of peptides. In the next step the cells underwent proliferation analysis as described above. • 3. PBMC direct presentation: In third method PNMC were used under similar conditions as described for the second method.
A different parameter for assessing the properties of ImMucin and the other VXL-peptide epitopes is by analyzing the time until a maximal peak of activity occurs and the optimal dose for maximal stimulation. Maximal peak of PBL activation is determined when <50% of the PBLs appear in clumps. In these experiments, the kinetic (time) in the proliferation of lymphocytes from the six naive donors stimulated at a fix dose of 0.05-1 ug/ml by ImMucin and other VXL-Peptides, was observed.

As to MTPGTQSPFFLLLLLTVLTVV [ImMucin], the “PBL Index of stimulation (SI) Direct no APC” value in [1] (average of two healthy donors (Table 11)) was 0. Besides, the “Optimal dose Direct no APC” value in [1] (optimal dose required for PBL activation, average of 5 experiments, six donors) is “No Influence”. Also, the “Peak of Proliferation (Hours) Direct no APC” value in experiment [1] (visual inspection daily during 5 days, average of 5 experiments) is reported as “No proliferation”. In addition, in experiment [2] (ImMucin activation), the “increase in percentage of memory CD45RO+ cells” value is “two fold”. For the same sequence, the “percentage of CD8+ T cells” value in experiment [2] (after repeated stimulation with ImMucin, from 15% before) is listed as 36%. Also, the “percentage of CD4+ T cells” value in experiment [2] (after repeated stimulation with ImMucin, from 43% before) came out at 85%. Also, the “Lysis % (1:50)” value in experiment [3] was found to be 0%; in experiment [4] it was 1.7%; in experiment [5] it was 23%; in experiment [6] it was 0%; in experiment [7], 1.1%. Besides, the “blood samples in which ImMucin specific activation could be observed” value in experiment [8] is 12. Further, in experiment [9], the “peak of proliferation / maximum stimulation” value was approximately 96 h.

The record behind these values is patent US11179452B2, “Antigen specific multi epitope vaccines” (priority 2006, dated 2021).
